Common to all, as to conditions: Macaca mulatta
Test [1] concerns Rhesus monkey. The test is described as follows: Inhibition of CGRP-induced vasodilation in rhesus monkey.
The test system of test [2] is Rhesus monkey. The test is described as follows: Inhibition of CGRP-induced vasodilation in rhesus monkey at plasma concentration of 2 uM. In kind it is functional.
The test system of test [3] is Rhesus monkey. The test is described as follows: Inhibition of CGRP-induced vasodilation in rhesus monkey at plasma concentration of 10 uM. Type of test: functional.

Drawing on ChEMBL document CHEMBL1152143, “Potent benzimidazolone-based CGRP receptor antagonists” (Bioorg Med Chem Lett, 2008), this text covers EC50 and inhibition for 2 compounds.

The structures appear in SMILES notation.

Take `Cc1cc(C)c2c(c1)n(CC(=O)Nc1ccc3c(c1)C[C@]1(C3)C(=O)NC(=O)N1C)c(=O)n2CC(=O)N(C)C`: a half-maximal effect in the test with Rhesus monkey [1] (EC50) was put at 0.3 µM. In addition, testing at 2 µM in the test with Rhesus monkey [2] gave an inhibition of 100%.

With `Cc1cc(C)c2c(c1)n(CC(=O)Nc1ccc3c(c1)C[C@]1(C3)C(=O)NC(=O)N1C)c(=O)n2C`, the EC50 – broadly, the concentration giving half of the maximal effect – in the test with Rhesus monkey [1] came to 10 µM. Further, in the test on Rhesus monkey [3], at 10 µM the inhibition was 50%.
